Test results as given in ChEMBL document CHEMBL1131730, “Isolation and characterization of an active-site peptide from a sterol methyl transferase with a mechanism-based inhibitor” (Bioorg Med Chem Lett, 1999).

What was measured:
Saccharomyces cerevisiae = assay: (§1) Rate of inactivation of sterol methyl transferase from Saccharomyces cerevisiae using mechanism based inhibitor; type: organism-based; conditions: in vivo
[1] = as §1

With `CC(C)C(C)CC[C@@H](C)C1CCC2C3=C(CCC21C)C1(C)CCC(O)CC1CC3` (some centres not stated) the Ki inact (Saccharomyces cerevisiae) was 1.52 min⁻¹ and the Ki [1] was 1.1 µM.
